For 4 molecules, IC50 and inhibition results are on record in patent US10172868B2, “Substituted quinazolines for inhibiting kinase activity” (NeuPharma, Inc., priority 2013, dated 2019).

The test system of one assay is HCC827 cells. In words: cells. As to conditions: Homo sapiens, HCC827, 72 h, read-out: IC50 in HCC827 cells.
The next assay has as its target FGFR1 (Homo sapiens (Human), UniProt P11362). In words: Z'-LYTE kinase inhibition assay, FGFR1. As to conditions: compound at 0.041 μM; read-out: % inhibition against FGFR1. The format is biochemical. As for the experimental part: (§1) Inhibitory activities of compounds against BTK, EGFR and EGFR mutants (EGFR L858R, EGFR T790M, EGFR L858R/T790M), FGFR1, FGFR2, JAK2, JAK3 and KDR were measured by Invitrogen using Z'-LYTE® Method as briefly described in the following.
(§2) Test Compounds are screened in 1% DMSO (final) in the well. For 10 point titrations, 3-fold serial dilutions are conducted from the starting concentration. All ATP Solutions are diluted to a 4× working concentration in Kinase Buffer (50 mM HEPES pH 7.5, 0.01% BRIJ-35, 10 mM MgCl2, 1 mM EGTA). Peptide/Kinase Mixtures are diluted to a 2× working concentration in the appropriate Kinase Buffers as described below.
(v) Peptide/Kinase Mixtures for Measurement of FGFR1:
The 2×FGFR1/Tyr 04 mixture is prepared in 50 mM HEPES pH 7.5, 0.01% BRIJ-35, 10 mM MgCl2, 4 mM MnCl2, 1 mM EGTA, 2 mM DTT. The final 10 μL Kinase Reaction consists of 0.41-3.5 ng FGFR1 and 2 μM Tyr 04 in 50 mM HEPES pH 7.5, 0.01% BRIJ-35, 10 mM MgCl2, 2 mM MnCl2, 1 mM EGTA, 1 mM DTT. After the 1 hour Kinase Reaction incubation, 5 μL of a 1:64 dilution of Development Reagent B is added.
(§3) Reaction starts by 30-second shaking of mixture consisting of 2.5 μL 4× test compound, […] 2× kinase reaction mixture and 2.5 μL 4×ATP Solution on Bar-coded Corning, low volume NBS, black 384-well plate (Corning Cat. #3676). Then the mixture is incubated for 60-minute at room temperature for the kinase reaction, followed by addition of 5 μL of a 1:1024 dilution of development reagent A and 30-second plate shake. The mixture is then incubated for another 60-minute at room temperature for development reaction. Finally fluorescence is read by plate reader.
To determine IC50 of a compound against EGFR, EGFR mutant and other kinases, a series of concentrations of the compound were tested for the inhibition. […] The scale utilized in Table 4 is as follows: +++ less than 100 nM, ++ 100-500 nM and + greater than 500 nM.

The next assay deals with EGFR (ErbB1) T790M L858R (Homo sapiens (Human), UniProt P00533, L858R/T790M). In words: Z'-LYTE kinase inhibition assay, EGFR L858R/T790M. The assay is classed as biochemical. The settings on record: for inhibition at 1 µM: read-out: % inhibition against EGFR L858R/T790M (Compound at 1 μM); for pIC50: read-out: IC50 against EGFR L858R/T790M. The procedure, abridged:
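Z'-LYTE FRET peptide assay at 1% DMSO, 10-point 3-fold titrations; kinase/peptide mix in 50 mM HEPES pH 6.5, 0.01% BRIJ-35, 10 mM MgCl2, 1 mM EGTA, 0.02% NaN3. Kinase reaction ran 60 min at room temperature, followed by 60 min development and a fluorescence read. IC50 derived from the concentration series.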

A further assay has as its system H1975 cells. In words: Inhibition of cancer cell growth, MTT assay, H1975. The settings on record: Homo sapiens, NCI-H1975, 72 h, read-out: IC50 in H1975 cells. On the technique in general: Formazan colour is commonly taken as a measure of viable cells.
The next assay has as its target EGFR (ErbB1) (Homo sapiens (Human), UniProt P00533). In words: Z'-LYTE kinase inhibition assay, EGFR. The assay is classed as biochemical. The settings on record: for inhibition at 1 µM: read-out: % inhibition against EGFR (Compound at 1 μM). The essentials:
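Z'-LYTE FRET assay run with 1.1-5.25 ng EGFR and 2 μM peptide substrate in 50 mM HEPES pH 7.5, 10 mM MgCl2, 2 mM MnCl2, 1 mM EGTA, 1 mM DTT, 0.01% BRIJ-35, 1% DMSO. Kinase reaction 60 min at room temperature, then 60 min development; IC50 from 10-point 3-fold titrations.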

The target in a further assay is BTK (Homo sapiens (Human), UniProt Q06187). In words: Z'-LYTE kinase inhibition assay, BTK. As to conditions: compound at 0.041 μM; read-out: % inhibition against BTK. The assay is classed as biochemical. The essentials:
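Z'-LYTE FRET assay with Tyr 01 peptide in 50 mM HEPES pH 7.5, 10 mM MgCl2, 1 mM EGTA, 0.01% BRIJ-35. Compounds in 1% DMSO were tested as 10-point, 3-fold titrations.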

For the next assay, the target named is JAK2 (Homo sapiens (Human), UniProt O60674). In words: Z'-LYTE kinase inhibition assay, JAK2. As to conditions: compound at 0.041 μM; read-out: % inhibition against JAK2. The format is biochemical. The method, then:
as §1, §2
(v) Peptide/Kinase Mixtures for Measurement of JAK2:
The 2×JAK2/Tyr 06 mixture is prepared in 50 mM HEPES pH 7.5, 0.01% BRIJ-35, 10 mM MgCl2, 1 mM EGTA. The final 10 μL Kinase Reaction consists of 0.06-0.81 ng JAK2 and 2 μM Tyr 06 in 50 mM HEPES pH 7.5, 0.01% BRIJ-35, 10 mM MgCl2, 1 mM EGTA. After the 1 hour Kinase Reaction incubation, 5 μL of a 1:64 dilution of Development Reagent A is added.
as §3

The next assay concerns H1299 cells. In words: Inhibition of cancer cell growth, MTT assay, H1299. The settings on record: Homo sapiens, NCI-H1299, 72 h, read-out: IC50 in H1299 cells.
For a further assay, the system named is A431 cells. In words: cells. The settings on record: Homo sapiens, A-431, 72 h, read-out: IC50 in A431 cells.

pIC50: −log10 of the molar value.

Sequence of BTK (Q06187 whole entry): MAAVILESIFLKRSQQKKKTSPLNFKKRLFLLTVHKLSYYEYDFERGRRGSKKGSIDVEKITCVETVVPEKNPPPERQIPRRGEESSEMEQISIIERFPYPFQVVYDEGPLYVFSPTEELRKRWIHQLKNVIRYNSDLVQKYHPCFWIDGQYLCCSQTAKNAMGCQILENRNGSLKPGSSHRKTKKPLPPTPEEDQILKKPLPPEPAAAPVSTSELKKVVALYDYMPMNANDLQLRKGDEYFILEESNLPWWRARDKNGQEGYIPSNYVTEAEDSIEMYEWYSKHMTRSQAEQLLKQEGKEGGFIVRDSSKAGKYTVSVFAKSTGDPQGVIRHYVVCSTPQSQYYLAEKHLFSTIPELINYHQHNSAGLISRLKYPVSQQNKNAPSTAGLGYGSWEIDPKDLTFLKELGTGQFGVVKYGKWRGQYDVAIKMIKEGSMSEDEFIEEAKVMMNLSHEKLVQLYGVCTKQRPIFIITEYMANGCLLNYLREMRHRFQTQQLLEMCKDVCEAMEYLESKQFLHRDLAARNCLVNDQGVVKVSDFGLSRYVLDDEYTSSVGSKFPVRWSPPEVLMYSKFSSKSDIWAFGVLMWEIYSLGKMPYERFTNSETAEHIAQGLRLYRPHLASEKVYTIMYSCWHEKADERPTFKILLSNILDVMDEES
Sequence of EGFR (ErbB1) (P00533 25-1210): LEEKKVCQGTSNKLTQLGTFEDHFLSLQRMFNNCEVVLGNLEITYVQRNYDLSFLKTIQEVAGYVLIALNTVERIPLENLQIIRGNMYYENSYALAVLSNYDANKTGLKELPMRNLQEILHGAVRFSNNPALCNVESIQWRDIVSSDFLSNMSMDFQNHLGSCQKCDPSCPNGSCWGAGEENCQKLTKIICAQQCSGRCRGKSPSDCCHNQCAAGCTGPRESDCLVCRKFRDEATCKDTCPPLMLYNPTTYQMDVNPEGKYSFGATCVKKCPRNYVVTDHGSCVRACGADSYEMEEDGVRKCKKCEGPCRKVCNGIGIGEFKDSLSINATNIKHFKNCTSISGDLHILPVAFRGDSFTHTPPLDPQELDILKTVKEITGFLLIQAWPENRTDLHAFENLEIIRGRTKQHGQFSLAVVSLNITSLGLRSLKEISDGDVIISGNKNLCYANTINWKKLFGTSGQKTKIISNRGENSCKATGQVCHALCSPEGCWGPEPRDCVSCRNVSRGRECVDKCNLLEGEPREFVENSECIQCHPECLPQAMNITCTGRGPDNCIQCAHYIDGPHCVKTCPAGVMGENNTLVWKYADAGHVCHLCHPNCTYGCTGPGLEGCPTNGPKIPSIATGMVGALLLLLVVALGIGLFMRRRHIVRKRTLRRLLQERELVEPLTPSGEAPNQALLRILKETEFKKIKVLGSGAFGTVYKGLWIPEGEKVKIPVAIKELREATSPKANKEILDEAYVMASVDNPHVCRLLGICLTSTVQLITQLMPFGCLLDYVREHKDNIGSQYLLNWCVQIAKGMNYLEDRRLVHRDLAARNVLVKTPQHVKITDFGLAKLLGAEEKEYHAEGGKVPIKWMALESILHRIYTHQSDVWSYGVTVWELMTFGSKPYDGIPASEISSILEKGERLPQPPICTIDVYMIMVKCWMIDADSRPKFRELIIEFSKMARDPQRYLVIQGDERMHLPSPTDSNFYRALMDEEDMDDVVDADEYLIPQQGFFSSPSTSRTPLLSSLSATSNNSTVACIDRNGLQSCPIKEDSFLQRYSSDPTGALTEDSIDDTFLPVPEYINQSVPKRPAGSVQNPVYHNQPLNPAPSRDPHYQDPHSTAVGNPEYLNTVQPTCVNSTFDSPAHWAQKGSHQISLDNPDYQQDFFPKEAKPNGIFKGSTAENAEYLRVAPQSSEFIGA
Sequence of JAK2 (O60674 whole entry): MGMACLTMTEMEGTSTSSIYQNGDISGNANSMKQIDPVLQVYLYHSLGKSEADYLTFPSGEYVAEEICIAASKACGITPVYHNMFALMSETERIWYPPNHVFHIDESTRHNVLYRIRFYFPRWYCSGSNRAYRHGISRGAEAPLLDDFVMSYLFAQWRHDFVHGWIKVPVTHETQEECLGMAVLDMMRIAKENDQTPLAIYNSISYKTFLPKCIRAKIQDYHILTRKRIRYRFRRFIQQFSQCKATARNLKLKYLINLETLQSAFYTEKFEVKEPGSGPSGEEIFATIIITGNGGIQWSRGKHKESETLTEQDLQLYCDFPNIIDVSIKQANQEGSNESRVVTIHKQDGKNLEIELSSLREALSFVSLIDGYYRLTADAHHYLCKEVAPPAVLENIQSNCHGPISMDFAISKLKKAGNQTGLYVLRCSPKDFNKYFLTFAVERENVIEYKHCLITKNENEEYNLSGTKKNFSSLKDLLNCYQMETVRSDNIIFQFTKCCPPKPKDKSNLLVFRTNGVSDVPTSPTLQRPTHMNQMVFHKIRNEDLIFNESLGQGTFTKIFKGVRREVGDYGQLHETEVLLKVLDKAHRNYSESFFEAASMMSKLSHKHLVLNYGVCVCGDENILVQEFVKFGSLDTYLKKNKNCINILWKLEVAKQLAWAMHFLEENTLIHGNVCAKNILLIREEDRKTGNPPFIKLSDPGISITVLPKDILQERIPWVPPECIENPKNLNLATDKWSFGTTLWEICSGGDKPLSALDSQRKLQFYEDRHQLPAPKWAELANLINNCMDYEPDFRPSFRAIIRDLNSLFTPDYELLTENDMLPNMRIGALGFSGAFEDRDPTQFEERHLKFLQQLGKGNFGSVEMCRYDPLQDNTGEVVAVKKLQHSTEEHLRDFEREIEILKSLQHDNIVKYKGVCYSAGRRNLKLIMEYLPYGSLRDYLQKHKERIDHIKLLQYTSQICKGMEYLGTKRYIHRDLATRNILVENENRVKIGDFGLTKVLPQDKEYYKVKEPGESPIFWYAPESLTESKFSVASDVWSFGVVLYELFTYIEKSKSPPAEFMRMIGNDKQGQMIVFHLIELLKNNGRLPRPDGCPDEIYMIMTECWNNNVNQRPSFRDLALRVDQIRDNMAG
Sequence of EGFR (ErbB1) T790M L858R (P00533 25-1210 T790M/L858R): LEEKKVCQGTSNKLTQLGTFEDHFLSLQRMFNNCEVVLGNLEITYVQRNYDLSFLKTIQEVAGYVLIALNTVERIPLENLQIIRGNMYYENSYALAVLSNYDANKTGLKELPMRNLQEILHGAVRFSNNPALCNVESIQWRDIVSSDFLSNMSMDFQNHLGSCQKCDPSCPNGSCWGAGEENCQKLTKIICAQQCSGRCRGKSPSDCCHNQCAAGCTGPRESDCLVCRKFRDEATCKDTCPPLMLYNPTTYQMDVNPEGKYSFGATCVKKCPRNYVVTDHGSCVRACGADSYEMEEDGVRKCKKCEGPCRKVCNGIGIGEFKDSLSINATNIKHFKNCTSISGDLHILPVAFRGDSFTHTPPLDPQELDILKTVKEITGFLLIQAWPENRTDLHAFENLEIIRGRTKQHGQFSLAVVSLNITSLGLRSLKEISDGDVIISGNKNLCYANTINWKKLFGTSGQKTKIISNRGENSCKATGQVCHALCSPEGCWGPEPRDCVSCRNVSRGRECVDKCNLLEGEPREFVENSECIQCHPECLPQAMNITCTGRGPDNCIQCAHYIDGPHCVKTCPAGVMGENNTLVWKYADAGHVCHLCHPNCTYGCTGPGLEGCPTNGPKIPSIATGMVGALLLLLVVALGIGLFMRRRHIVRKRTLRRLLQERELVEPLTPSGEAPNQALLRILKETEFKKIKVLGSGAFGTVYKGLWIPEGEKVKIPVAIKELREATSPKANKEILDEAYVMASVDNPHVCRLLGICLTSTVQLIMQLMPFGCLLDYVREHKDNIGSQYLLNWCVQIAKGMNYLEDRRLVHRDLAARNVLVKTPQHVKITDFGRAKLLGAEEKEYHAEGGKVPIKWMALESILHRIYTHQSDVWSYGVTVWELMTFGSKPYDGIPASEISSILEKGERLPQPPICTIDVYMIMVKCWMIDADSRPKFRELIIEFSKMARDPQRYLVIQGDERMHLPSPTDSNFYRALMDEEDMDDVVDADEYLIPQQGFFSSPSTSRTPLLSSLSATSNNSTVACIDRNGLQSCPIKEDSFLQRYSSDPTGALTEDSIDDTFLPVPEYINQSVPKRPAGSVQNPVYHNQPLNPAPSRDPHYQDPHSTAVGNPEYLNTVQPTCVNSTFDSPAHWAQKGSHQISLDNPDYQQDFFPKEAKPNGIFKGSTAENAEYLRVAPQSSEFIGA
Sequence of FGFR1 (P11362 22-822): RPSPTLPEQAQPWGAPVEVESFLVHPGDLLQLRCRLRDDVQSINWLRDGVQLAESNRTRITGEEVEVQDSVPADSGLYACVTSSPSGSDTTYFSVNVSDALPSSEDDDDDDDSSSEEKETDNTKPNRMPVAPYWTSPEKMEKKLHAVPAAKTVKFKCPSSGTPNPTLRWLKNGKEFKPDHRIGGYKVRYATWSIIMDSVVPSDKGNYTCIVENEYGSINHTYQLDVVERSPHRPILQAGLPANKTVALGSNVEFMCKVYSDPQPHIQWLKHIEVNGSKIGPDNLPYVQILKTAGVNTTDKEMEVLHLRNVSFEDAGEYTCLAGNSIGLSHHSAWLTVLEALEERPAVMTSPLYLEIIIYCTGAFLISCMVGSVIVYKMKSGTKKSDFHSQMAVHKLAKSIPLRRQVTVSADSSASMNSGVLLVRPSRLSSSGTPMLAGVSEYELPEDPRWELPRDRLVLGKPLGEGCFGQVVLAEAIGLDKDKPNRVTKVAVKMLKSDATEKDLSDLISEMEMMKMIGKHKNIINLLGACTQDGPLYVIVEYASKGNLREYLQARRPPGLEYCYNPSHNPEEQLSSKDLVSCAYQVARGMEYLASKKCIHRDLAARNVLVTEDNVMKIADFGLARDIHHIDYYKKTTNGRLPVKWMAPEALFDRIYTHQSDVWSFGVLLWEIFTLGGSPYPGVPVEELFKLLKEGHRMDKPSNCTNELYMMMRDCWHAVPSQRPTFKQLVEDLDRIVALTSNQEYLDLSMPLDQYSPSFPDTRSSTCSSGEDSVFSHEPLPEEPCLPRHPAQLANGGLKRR
Experimental for A431 cells: (§4) Taxol (as a positive control. Sigma) and compounds were dissolved in DMSO (Sigma), and the final concentration of DMSO in the medium was 1%. Tumor cells were plated in 96-well plates at densities of about 4000 cells/well of a 96-well plate and allowed to adhere/grow for 24 h. They were then treated with various concentrations of drug for 72 h, 3-(4,5-Dimethylthiazol-2-yl)-2,5-diphenyltetrazolium bromide (MTT, Sigma) was used to determine the number of viable cells at the time of compound addition and the number of cells remaining after 72 h compound exposure. The number of cells remaining after 72 h was compared to the number of viable cells at the time of compound addition by measuring the absorbance at 570 nm, allowing for the calculation of growth inhibition.
(§5) All concentrations of compounds were tested in triplicate and controls were averaged over 4 wells. IC50 was calculated by plotting the concentration of compound vs the percentage of inhibition in treated wells using GraphPad Prism 5.
(§6) The scale utilized in Tables 5 is as follows: +++ less than 100 nM; ++ between 100 nM and 500 nM; and + greater than 500 nM.
Experimental for H1299 cells: Inhibition of cell growth by compounds was measured using MTT assay (Mosmann, T., Journal of Immunological Methods, 1983, 65, 55-63). Tumor cell lines were purchased from ATCC (American Type Culture Collection, Manassas, Va.). All cell lines were maintained in RPMI 1640 (Hyclone) supplemented with 10% fetal bovine serum (FBS, Hyclone), glutamine (2 mM, Hyclone), and antibiotics (penicillin 100 U/mL and streptomycin 50 μg/mL) at 37° C. in a humidified atmosphere of 5% CO2 in air. Taxol (as a positive control. Sigma) and compounds were dissolved in DMSO (Sigma), and the final concentration of DMSO in the medium was 1%. Tumor cells were plated in 96-well plates at densities of about 4000 cells/well of a 96-well plate and allowed to adhere/grow for 24 h. They were then treated with various concentrations of drug for 72 h, 3-(4,5-Dimethylthiazol-2-yl)-2,5-diphenyltetrazolium bromide (MTT, Sigma) was used to determine the number of viable cells at the time of compound addition and the number of cells remaining after 72 h compound exposure. The number of cells remaining after 72 h was compared to the number of viable cells at the time of compound addition by measuring the absorbance at 570 nm, allowing for the calculation of growth inhibition.
as §5
Experimental for HCC827 cells: as §4, §5, §6

Consider `Fc1ccc(OCCN2CCOCC2)cc1-c1cccc2cnc(Nc3ccc(N4CCOCC4)cc3)nc12` [Example C023, 8-(2-fluoro-5-(2-morpholinoethoxy)phenyl)-N-(4-morpholinophenyl)quinazolin-2-amine], for which the pIC50 with HCC827 cells and in the assay with H1975 cells was < 6.30 each time. Further, the inhibition at 0.041 µM at FGFR1, at BTK and at JAK2 was < 50% throughout. For the same molecule, the inhibition at 1 µM at EGFR (ErbB1) T790M L858R and on EGFR (ErbB1) was < 50% throughout.

Turning to `C=CC(=O)Nc1cccc(-c2cccc3cnc(Nc4ccc(N5CCN(C(C)=O)CC5)cc4)nc23)c1` [Example C032, N-(3-(2-((4-(4-acetylpiperazin-1-yl)phenyl)amino)quinazolin-8-yl)phenyl)acrylamide], the pIC50 in the assay with HCC827 cells was > 7.00; at EGFR (ErbB1) T790M L858R, > 7.00; in the assay on H1975 cells, 6.30 to 7.00; in the assay with H1299 cells, < 6.30; with A431 cells, 6.30 to 7.00. Further, at EGFR (ErbB1), the inhibition at 1 µM is > 50%. The inhibition at 0.041 µM at BTK and on JAK2 was > 50% in each case.

Regarding `C=CC(=O)Nc1cccc(-c2c(C)ccc3cnc(Nc4ccc(N5CCOCC5)cc4)nc23)c1` [Example C033, N-(3-(7-methyl-2-((4-morpholinophenyl)amino)quinazolin-8-yl)phenyl)acrylamide], the pIC50 was > 7.00 with HCC827 cells, 6.30 to 7.00 in the assay with H1975 cells and < 6.30 in the assay with H1299 cells. Moreover, the inhibition at 1 µM on EGFR (ErbB1) T790M L858R and at EGFR (ErbB1) was > 50% throughout. Further, the inhibition at 0.041 µM on BTK is > 50%; at JAK2, < 50%.

Consider `C=CC(=O)Nc1cncc(-c2cccc3cnc(Nc4ccc(N5CCN(C)CC5)cc4)nc23)c1` [Example C040, N-(5-(2-((4-(4-methylpiperazin-1-yl)phenyl)amino)quinazolin-8-yl)pyridin-3-yl)acrylamide], for which the pIC50 with HCC827 cells was > 7.00; at EGFR (ErbB1) T790M L858R, > 7.00; with H1975 cells it was > 7.00; on EGFR (ErbB1) (read-out: IC50 against EGFR), > 7.00; in the assay on H1299 cells, 6.30 to 7.00; with A431 cells it was 6.30 to 7.00. The values for the inhibition at 0.041 µM at EGFR (ErbB1) (read-out: % inhibition against EGFR (Compound at 0.041 μM)), at BTK and on JAK2 were > 50%, > 50% and < 50%, respectively.
